Here are results for seven molecules from ChEMBL document CHEMBL3991601, “The target landscape of clinical kinase drugs” (Science, 2017).

A word on the Kd: it is the concentration at which binding is half-saturated.

Test [1] deals with Tyrosine-protein kinase ABL2 (Homo sapiens, UniProt P42684).
For test [2], the target named is Serine/threonine-protein kinase pim-1 (Homo sapiens, UniProt P11309).
The target in test [3] is Mitogen-activated protein kinase 1 (Homo sapiens, UniProt P28482).
The target in test [4] is T1, Serine/threonine-protein kinase ULK1 (Homo sapiens, UniProt O75385).
T1 sequence (O75385 whole entry): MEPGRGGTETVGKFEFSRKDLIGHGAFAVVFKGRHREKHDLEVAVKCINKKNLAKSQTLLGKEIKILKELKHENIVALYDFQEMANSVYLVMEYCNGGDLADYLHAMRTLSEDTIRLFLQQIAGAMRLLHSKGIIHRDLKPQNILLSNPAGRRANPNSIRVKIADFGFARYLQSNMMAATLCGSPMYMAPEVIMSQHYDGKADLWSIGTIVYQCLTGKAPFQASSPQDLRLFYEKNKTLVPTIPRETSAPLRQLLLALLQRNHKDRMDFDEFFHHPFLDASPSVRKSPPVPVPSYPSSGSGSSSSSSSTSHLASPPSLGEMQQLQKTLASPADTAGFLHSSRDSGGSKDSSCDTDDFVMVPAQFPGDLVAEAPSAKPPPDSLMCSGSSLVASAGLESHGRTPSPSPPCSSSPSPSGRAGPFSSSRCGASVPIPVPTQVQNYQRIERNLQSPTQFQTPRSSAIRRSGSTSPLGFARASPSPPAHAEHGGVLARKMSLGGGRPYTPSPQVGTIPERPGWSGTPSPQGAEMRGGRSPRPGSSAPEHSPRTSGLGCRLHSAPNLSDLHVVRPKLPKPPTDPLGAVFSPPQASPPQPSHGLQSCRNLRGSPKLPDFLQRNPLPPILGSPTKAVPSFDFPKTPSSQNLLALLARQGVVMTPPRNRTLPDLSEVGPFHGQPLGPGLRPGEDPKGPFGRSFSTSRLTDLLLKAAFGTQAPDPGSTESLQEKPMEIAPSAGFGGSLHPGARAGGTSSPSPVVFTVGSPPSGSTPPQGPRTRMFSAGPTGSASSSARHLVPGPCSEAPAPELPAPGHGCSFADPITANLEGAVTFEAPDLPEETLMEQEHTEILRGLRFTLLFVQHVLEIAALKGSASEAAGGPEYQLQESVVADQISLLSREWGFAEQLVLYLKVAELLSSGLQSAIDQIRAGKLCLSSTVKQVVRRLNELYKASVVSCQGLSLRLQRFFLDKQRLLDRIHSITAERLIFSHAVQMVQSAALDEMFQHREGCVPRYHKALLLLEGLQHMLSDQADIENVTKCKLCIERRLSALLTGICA

Test [5] addresses Atypical kinase COQ8A, mitochondrial (Homo sapiens, UniProt Q8NI60).
The target in test [6] is T2, Acyl-CoA dehydrogenase family member 10 (Homo sapiens, UniProt Q6JQN1).
T2 sequence (Q6JQN1 whole entry): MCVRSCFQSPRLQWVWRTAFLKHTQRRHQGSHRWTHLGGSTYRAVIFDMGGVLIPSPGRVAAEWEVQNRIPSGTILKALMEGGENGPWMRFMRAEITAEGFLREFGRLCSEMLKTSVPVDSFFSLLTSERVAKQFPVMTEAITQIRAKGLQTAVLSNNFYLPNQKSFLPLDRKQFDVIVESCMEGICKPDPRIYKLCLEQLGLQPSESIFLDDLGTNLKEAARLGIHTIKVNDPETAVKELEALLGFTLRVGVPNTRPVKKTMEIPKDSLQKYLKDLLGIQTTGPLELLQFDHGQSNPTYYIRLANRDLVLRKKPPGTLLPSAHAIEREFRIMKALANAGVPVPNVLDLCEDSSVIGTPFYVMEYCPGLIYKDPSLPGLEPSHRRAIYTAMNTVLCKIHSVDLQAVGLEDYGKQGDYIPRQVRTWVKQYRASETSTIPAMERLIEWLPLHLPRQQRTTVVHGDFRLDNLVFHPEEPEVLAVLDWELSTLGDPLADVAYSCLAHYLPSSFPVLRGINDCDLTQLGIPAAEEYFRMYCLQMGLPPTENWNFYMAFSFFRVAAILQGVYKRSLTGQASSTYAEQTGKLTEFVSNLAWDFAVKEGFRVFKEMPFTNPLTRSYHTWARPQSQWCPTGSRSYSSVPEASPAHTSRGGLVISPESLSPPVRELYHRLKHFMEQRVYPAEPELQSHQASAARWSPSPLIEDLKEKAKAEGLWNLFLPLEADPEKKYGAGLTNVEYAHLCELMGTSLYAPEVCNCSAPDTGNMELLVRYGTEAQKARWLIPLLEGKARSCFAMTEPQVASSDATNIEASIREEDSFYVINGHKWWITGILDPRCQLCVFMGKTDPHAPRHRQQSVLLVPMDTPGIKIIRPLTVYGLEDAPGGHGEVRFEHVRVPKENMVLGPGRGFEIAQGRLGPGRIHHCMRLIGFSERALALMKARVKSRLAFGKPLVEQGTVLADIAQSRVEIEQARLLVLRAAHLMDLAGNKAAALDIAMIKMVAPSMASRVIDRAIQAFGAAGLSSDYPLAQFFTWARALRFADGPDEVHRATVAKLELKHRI

Structures are written as SMILES. The source made the active and inactive calls. Bounds are passed on as bounds.
Note: in the data inactive means no Kd found up to 30 µM.

Chain of Tyrosine-protein kinase ABL2 (P42684 whole entry): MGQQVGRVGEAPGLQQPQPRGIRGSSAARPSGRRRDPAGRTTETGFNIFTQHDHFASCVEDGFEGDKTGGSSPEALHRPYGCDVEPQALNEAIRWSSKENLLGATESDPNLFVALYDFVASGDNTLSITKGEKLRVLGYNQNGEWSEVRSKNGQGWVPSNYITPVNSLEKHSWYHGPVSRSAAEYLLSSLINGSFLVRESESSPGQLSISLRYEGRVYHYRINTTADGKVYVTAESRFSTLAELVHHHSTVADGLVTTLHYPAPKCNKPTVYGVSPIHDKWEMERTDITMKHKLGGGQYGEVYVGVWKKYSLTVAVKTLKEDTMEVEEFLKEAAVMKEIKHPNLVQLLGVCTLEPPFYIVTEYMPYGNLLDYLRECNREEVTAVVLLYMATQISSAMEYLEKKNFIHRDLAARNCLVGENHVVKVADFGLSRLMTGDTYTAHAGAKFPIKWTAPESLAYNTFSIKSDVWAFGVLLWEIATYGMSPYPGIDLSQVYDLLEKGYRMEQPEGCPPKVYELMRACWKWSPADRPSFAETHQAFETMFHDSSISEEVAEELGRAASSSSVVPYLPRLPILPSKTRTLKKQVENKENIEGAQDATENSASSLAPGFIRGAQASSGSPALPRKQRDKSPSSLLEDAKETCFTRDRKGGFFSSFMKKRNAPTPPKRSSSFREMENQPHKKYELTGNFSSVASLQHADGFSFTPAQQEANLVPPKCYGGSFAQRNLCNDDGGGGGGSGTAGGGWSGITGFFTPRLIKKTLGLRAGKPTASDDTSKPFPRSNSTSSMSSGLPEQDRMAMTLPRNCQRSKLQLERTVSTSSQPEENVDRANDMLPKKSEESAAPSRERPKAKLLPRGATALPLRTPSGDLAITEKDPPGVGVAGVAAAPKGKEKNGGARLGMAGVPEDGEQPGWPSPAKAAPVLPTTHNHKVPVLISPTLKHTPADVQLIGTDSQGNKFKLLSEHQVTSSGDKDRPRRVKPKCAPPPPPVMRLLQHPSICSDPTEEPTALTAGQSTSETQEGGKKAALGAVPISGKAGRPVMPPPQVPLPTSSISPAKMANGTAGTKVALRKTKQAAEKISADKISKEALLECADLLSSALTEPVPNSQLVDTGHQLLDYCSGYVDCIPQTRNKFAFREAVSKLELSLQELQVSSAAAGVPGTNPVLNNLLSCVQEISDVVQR
Chain of Atypical kinase COQ8A, mitochondrial (Q8NI60 whole entry): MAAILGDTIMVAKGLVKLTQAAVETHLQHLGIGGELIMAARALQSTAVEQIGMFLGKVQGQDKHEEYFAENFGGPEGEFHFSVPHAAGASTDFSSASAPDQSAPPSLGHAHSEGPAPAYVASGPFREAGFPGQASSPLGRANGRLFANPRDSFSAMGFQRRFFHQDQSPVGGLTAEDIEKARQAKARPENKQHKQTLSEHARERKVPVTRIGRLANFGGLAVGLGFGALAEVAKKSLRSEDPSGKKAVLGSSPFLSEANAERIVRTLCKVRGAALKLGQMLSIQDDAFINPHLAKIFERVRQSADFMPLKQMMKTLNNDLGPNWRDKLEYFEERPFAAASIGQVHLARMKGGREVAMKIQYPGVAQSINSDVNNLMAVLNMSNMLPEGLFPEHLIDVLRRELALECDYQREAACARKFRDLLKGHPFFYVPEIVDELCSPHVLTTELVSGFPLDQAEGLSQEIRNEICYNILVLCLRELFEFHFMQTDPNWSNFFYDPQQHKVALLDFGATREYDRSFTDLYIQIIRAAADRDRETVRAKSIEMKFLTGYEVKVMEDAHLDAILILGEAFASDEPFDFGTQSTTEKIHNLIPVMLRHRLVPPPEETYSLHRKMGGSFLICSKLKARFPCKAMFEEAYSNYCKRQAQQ
Chain of Mitogen-activated protein kinase 1 (P28482 whole entry): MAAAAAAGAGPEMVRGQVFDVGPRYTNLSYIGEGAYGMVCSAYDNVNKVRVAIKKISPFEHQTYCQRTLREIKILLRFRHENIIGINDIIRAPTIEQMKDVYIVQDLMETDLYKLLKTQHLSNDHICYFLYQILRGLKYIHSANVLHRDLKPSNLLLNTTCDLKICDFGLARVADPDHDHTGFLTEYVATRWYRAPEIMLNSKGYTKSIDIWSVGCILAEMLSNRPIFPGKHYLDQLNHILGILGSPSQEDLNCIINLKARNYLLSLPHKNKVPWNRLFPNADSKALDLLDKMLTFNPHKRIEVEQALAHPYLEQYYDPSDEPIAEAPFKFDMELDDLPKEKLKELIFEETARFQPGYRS
Chain of Serine/threonine-protein kinase pim-1 (P11309 whole entry): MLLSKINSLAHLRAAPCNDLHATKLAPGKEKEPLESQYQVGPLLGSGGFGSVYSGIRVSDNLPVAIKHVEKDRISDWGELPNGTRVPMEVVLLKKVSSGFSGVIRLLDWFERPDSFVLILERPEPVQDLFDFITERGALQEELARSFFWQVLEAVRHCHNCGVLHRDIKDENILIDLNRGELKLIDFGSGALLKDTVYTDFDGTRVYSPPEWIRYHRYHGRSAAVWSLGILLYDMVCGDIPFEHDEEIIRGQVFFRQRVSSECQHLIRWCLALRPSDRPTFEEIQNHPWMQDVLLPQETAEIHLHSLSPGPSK

`CO[C@H]1C[C@@H]2CC[C@@H](C)[C@@](O)(O2)C(=O)C(=O)N2CCCC[C@H]2C(=O)O[C@H]([C@H](C)C[C@@H]2CC[C@@H](O)[C@H](OC)C2)CC(=O)[C@H](C)/C=C(\C)[C@@H](O)[C@@H](OC)C(=O)[C@H](C)C[C@H](C)/C=C/C=C/C=C/1C` [SIROLIMUS]: the Kd in test [1], in test [2], in test [3], in test [4], in test [5] and in test [6] was > 30 µM (inactive) throughout.
Consider `CO[C@H]1C[C@@H]2CC[C@@H](C)[C@@](O)(O2)C(=O)C(=O)N2CCCC[C@H]2C(=O)O[C@H]([C@H](C)C[C@@H]2CC[C@@H](OC(=O)C(C)(CO)CO)[C@H](OC)C2)CC(=O)[C@H](C)/C=C(\C)[C@@H](O)[C@@H](OC)C(=O)[C@H](C)C[C@H](C)/C=C/C=C/C=C/1C` [TEMSIROLIMUS], for which the Kd in test [1], in test [2], in test [3], in test [4], in test [5] and in test [6] was > 30 µM (inactive) throughout.
For `COc1cc2c(Nc3ccc(Cl)c(Cl)c3F)ncnc2cc1OC[C@@H]1C[C@@H]2CN(C)C[C@@H]2C1` [TESEVATINIB], the equilibrium dissociation constant (Kd) is 0.628 µM (active) in test [1]; > 30 µM (inactive) in test [2]; > 30 µM (inactive) in test [3]; > 30 µM (inactive) in test [4]; > 30 µM (inactive) in test [5]; > 30 µM (inactive) in test [6].
Consider `O=C(Cc1ccc(-c2ccc(OCCN3CCOCC3)cc2)cn1)NCc1ccccc1` [TIRBANIBULIN], for which the Kd in test [1], in test [2], in test [3], in test [4], in test [5] and in test [6] was > 30 µM (inactive) throughout.
As for `O=C1NC(=O)[C@@H](c2cn3c4c(cccc24)CCC3)[C@@H]1c1c[nH]c2ccccc12` [TIVANTINIB], the Kd in test [1], in test [2], in test [3], in test [4], in test [5] and in test [6] was > 30 µM (inactive) throughout.
Turning to `C[C@@H](NC(=O)c1ncnc(N)c1Cl)c1ncc(C(=O)Nc2cc(C(F)(F)F)c(Cl)cn2)s1` [TOVORAFENIB], the Kd is 0.099 µM (active) in test [1]; > 30 µM (inactive) in test [2]; > 30 µM (inactive) in test [3]; > 30 µM (inactive) in test [4]; > 30 µM (inactive) in test [5]; > 30 µM (inactive) in test [6].
Turning to `Cc1cc(Nc2ncnc3ccc(NC4=NC(C)(C)CO4)cc23)ccc1Oc1ccn2ncnc2c1` [TUCATINIB], the Kd in test [1], in test [2], in test [3], in test [4], in test [5] and in test [6] was > 30 µM (inactive) throughout.
